# US20230301998A1, “METHODS AND COMPOSITIONS FOR INDUCTION OF ANTITUMOR IMMUNITY” (Sanford Burnham Prebys Medical Discovery Institute, priority 2020, published 2023)
# Key:
# PRMT5 [1] = molecular target: T1, PRMT5 (Mus musculus, UniProt Q8CIG8); experiment: IP/immunoblot of IFI204 Arg methylation and SHARPIN interaction in B16 cells after PRMT5 inhibition; format: cell-based
# T1 construct: endogenous in cells; host or cells: B16F10 murine melanoma cells (ATCC)
# Method: Immunoblotting was performed using standard protocols. Melanoma cells were lysed by incubation in RIPA buffer [50 mM Tris-HC1, pH7.4, 1% (v/v) NP40, 0.1% (w/v) sodium deoxycholate, 0.1% (w/v) sodium dodecyl sulfate, 150 mM NaCl, 1mM EDTA, and protease and phosphatase inhibitor cocktails (Thermo Fisher Scientific)] and freeze-thawed 3 times. For immunoprecipitation HEK293T cells were lysed in 1% Triton X-100 buffer [50 mM Tris-HC1, pH7.4, 1% (v/v) Triton X-100, 150 mM NaCl, 1 mM EDTA, and protease and phosphatase inhibitor cocktails (Thermo Fisher Scientific)] and freeze-thawed 3 times. Lysates were then incubated overnight with indicated antibodies and then for 4 hr with protein A/G agarose beads (Santa Cruz Biotechnology) under gentle mixing. Proteins were eluted by addition of lysis buffer and boiled in Laemmli buffer before separation on SDS-PAGE and transfer to a PVDF membrane. […] Protein bands were visualized and quantified using an Odyssey Infrared Imaging System (LiCor Biosciences) or ChemiDoc Imaging System (Bio-Rad). […] STING polymer was analyzed using BlueNative(BN) PAGE (3). […] STING dimers and polymers were detected using a STING antibody (D2P2F, Cell Signaling),Immunofluorescence
# cGAS/STING pathway = experiment: dsDNA (V70mer)-stimulated cGAS/STING signalling in B16 cells (qPCR, western blot); format: cell-based, mouse
# PRMT5 [2] = molecular target: T2, PRMT5 (Homo sapiens, UniProt O14744); experiment: IP/immunoblot of IFI16 Arg methylation and SHARPIN interaction in human melanoma cells after PRMT5 inhibition; format: cell-based
# T2 construct: endogenous in cells; host or cells: A375 and WM115 human melanoma cells
# T2 sequence (O14744 whole entry): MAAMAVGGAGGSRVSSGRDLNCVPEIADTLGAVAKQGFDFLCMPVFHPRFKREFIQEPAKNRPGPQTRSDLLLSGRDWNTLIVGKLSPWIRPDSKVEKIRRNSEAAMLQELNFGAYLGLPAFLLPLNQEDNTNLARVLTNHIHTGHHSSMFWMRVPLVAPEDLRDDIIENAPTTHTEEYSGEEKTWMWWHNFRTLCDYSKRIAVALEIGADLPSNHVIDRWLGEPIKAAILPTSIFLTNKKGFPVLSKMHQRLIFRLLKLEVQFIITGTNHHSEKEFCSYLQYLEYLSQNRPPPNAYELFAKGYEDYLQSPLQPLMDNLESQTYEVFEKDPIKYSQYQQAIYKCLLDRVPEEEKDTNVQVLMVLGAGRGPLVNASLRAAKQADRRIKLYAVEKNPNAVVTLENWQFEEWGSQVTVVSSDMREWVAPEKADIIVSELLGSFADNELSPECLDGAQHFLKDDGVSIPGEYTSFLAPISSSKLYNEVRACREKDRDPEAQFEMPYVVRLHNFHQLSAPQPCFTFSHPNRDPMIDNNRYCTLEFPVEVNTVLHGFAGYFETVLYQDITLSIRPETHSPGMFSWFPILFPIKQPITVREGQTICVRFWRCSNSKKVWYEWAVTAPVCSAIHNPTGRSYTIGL
# T2 sequence (Q9BQA1 whole entry partner): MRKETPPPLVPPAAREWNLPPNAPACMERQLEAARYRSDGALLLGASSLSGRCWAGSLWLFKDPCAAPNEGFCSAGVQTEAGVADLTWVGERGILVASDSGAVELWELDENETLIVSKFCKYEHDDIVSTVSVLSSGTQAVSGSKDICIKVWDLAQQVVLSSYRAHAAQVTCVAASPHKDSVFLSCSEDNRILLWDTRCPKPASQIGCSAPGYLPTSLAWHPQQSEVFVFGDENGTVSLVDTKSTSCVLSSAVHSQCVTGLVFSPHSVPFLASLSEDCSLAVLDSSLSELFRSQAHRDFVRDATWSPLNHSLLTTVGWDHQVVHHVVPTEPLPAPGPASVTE
# Method: Immunoblotting was performed using standard protocols. Melanoma cells were lysed by incubation in RIPA buffer [50 mM Tris-HC1, pH7.4, 1% (v/v) NP40, 0.1% (w/v) sodium deoxycholate, 0.1% (w/v) sodium dodecyl sulfate, 150 mM NaCl, 1mM EDTA, and protease and phosphatase inhibitor cocktails (Thermo Fisher Scientific)] and freeze-thawed 3 times. For immunoprecipitation HEK293T cells were lysed in 1% Triton X-100 buffer [50 mM Tris-HC1, pH7.4, 1% (v/v) Triton X-100, 150 mM NaCl, 1 mM EDTA, and protease and phosphatase inhibitor cocktails (Thermo Fisher Scientific)] and freeze-thawed 3 times. Lysates were then incubated overnight with indicated antibodies and then for 4 hr with protein A/G agarose beads (Santa Cruz Biotechnology) under gentle mixing. Proteins were eluted by addition of lysis buffer and boiled in Laemmli buffer before separation on SDS-PAGE and transfer to a PVDF membrane. Membranes were incubated for 1 h at room temperature with blocking solution [TBS (Tris-buffered Saline); 10 mM Tris-HC1, pH8.0, 150 mM NaCl)] containing 0.1% Tween 20 and 5% nonfat milk followed by incubation overnight at 4° C. with appropriate primary antibodies. Membranes were washed with TBS and incubated 1 h at room temperature with secondary antibody [Alexa 680-conjugated goat anti-rabbit, goat anti-mouse, donkey anti-goat (Life Technologies) or IRDye 800-conjugated goat anti-mouse (Rockland Immunochemicals)], or HRP-conjugated anti-mouse or anti-rabbit IgG antibodies. TidyBlot anti-rabbit secondary antibody (Bio-Rad) was used to detect immunoprecipitated proteins (SHARPIN). Blots were treated with HRP-conjugated antibodies and SuperSignal West Pico or Femto chemiluminescent substrate (ThermoFisher scientific). Protein bands were visualized and quantified using an Odyssey Infrared Imaging System (LiCor Biosciences) or ChemiDoc Imaging System (Bio-Rad). […] STING polymer was analyzed using BlueNative(BN) PAGE (3). […] STING dimers and polymers were detected using a STING antibody (D2P2F, Cell Signaling),Immunofluorescence
# B16F10 cells = experiment: B16F10 syngeneic melanoma tumor model in C57BL/6 mice (tumor volume, response, survival, immune phenotyping); format: in vivo, mouse; settings: for Non-responder / Responder: number of mice
# Method: Animal experiments. All animal experiments were conducted with approval of the Institutional Animal Care and Use Committee of Sanford Burnham Prebys Medical Discovery Institute (AUF#18-044). The murine melanoma lines B16F10, YUMM1.7 , and YUMMER1.7 were injected subcutaneously (2.0×10^5 cells of B16F10 or YUMM1.7; 4.0 ×10^5 cells of YUMMER1.7) into the lower right flank of 6-8-week-old male C57BL/6 (B16F10, YUMM1.7, YUMMER1.7) or Nod-Scid-Gamma (NSG) (B16F10, YUMMER1.7) mice. To induce transduced inducible shPRMT5, doxycycline (10 mg/ml, Fisher Bioreagents) was prepared in methylcellulose solution (0.5% hydroxylmethylcellulose, 0.2% Tween80) and administered to mice (0.2 ml, oral gavage, QD)Tumor sizes were monitored using calipers. At indicated time points, tumors were collected, 21 weighed and assessed for immune phenotypes using flow cytometry or immunofluorescence. To assess efficacy of immune checkpoint antibodies, mice were grafted with B16F10 or YUMM1.7 (2.0×10^5 cells, s.c.) cells and treated with 200 μg control IgG [rat IgG2a; BE0089 (BioXcell)], anti-CD152 (CTLA-4) [9H10 (BE0131, BioXcell)] or anti-CD279 (PD-1) [RMP1-14 (BE0146, BioXcell)]. Antibodies were injected (i.p.) 3 - 5 times (every 3 days starting from the indicated date). […] Antibodies were injected (i.p.) every 3 days starting one day prior to tumor cell inoculation. The efficiency of depletion was assessed using flow cytometry of blood samples collected at day 8 after tumor inoculation. To assess percent survival of animals, mice bearing tumors exceeding 2,000 mm^3 were defined as “dead”. Gene set enrichment (GSEA) and Ingenuity Pathway (IPA) analyses
# (§1) Statistical analyses were performed using Prism software (version 7.00, GraphPad). For comparison of means of two groups with normal (or approximately normal) distributions, an un-paired t-test was applied. To compare means between >2 groups, one-way analysis of variance (ANOVA) was used with multiple comparison corrections (Dunnett's or Tukey's test). For animal experiments, two-way ANOVA (time and treatment) was used with Tukey's multiple comparison test. For Kaplan-Meier plots to compare overall survival, a log-rank test was used to determine significance of differences between groups. To evaluate response to therapy in a mouse model, Fisher's exact test (version 7.00, GraphPad) was used. For that analysis, a tumor with volume <50% of control tumors was defined as “responding to treatment”. For all analyses, a difference with p<0.05 was considered significant, unless specified.
# For immune phenotyping, B16F10 tumors were collected and processed by chopping and mincing using a tube-secured cell strainer (70 p.m poresize, Falcon) to prepare single cells for flow cytometry. YUMMER1.7 cells were processed by chopping, following incubation in Collargenase D solution [0.1% (w/v) Collagenase D, 0.5% (w/v) BSA, 100 μg/ml DNase in PBS] for 1 hr at 30° C. and mincing using cells strainer. […] All antibodies were from Biolegend. Stained cells were fixed in 1% formaldehyde (Sigma) in PBS (pH7.4) for 15 min at 4° C. and analyzed with BD LSRFortessa (BD Biosciences) flow cytometry. For intranuclear staining of FoxP3, cells were fixed and permearbilized using a FoxP3/Transcription factor Fixation/Permearbilization kit (ThermoFisher Scientific). […] Cells were stained with antibody cocktail for surface markers [CD45.2, CD4, and CD8] and followed by staining with intraceullar cytokine antibodies [IFN gamma (APC), TNF alpha(FITC) and IL-2(PE)]. The number of specific immune cells per gram of tumor was calculated based on the percentage of specified immune cells identified in FACS (relative to the total number of tumors cells) per tumor weight. […] Cells were fixed and analyzed as above. To assess effects efficiency of in vivo depletion of CD8 T or NK cells, immune cells were isolated from mouse blood and RBCs were lysed using hypotonic buffer [15 mM NH4C1, 10 mM KHCO3, 0.1mM Na2EDTA] for 1 hr at 4° C.
# YUMM1.7 cells = experiment: YUMM1.7 syngeneic melanoma tumor model in C57BL/6 mice (tumor volume, response); format: in vivo, mouse; settings: for Non-responder / Responder: number of mice
# Method: Animal experiments. All animal experiments were conducted with approval of the Institutional Animal Care and Use Committee of Sanford Burnham Prebys Medical Discovery Institute (AUF#18-044). The murine melanoma lines B16F10, YUMM1.7 , and YUMMER1.7 were injected subcutaneously (2.0×10^5 cells of B16F10 or YUMM1.7; 4.0 ×10^5 cells of YUMMER1.7) into the lower right flank of 6-8-week-old male C57BL/6 (B16F10, YUMM1.7, YUMMER1.7) or Nod-Scid-Gamma (NSG) (B16F10, YUMMER1.7) mice. To induce transduced inducible shPRMT5, doxycycline (10 mg/ml, Fisher Bioreagents) was prepared in methylcellulose solution (0.5% hydroxylmethylcellulose, 0.2% Tween80) and administered to mice (0.2 ml, oral gavage, QD)Tumor sizes were monitored using calipers. At indicated time points, tumors were collected, 21 weighed and assessed for immune phenotypes using flow cytometry or immunofluorescence. To assess efficacy of immune checkpoint antibodies, mice were grafted with B16F10 or YUMM1.7 (2.0×10^5 cells, s.c.) cells and treated with 200 μg control IgG [rat IgG2a; BE0089 (BioXcell)], anti-CD152 (CTLA-4) [9H10 (BE0131, BioXcell)] or anti-CD279 (PD-1) [RMP1-14 (BE0146, BioXcell)]. Antibodies were injected (i.p.) 3 - 5 times (every 3 days starting from the indicated date). […] To deplete NK or CD8+ cells, mice were treated with anti-NK1.1 antibody [PK136 (BE0036, BioXcell)] or anti-CD8 antibody [2.43(BE0061, BioXcell), respectively; controls were treated with 200 μtg IgG [rat IgG2b (BE0090, BioXcell)]. Antibodies were injected (i.p.) every 3 days starting one day prior to tumor cell inoculation. The efficiency of depletion was assessed using flow cytometry of blood samples collected at day 8 after tumor inoculation. To assess percent survival of animals, mice bearing tumors exceeding 2,000 mm^3 were defined as “dead”. Gene set enrichment (GSEA) and Ingenuity Pathway (IPA) analyses
# as §1
# RIG-I/TLR3 = experiment: dsRNA poly(I:C)-induced type I interferon response in B16 cells (qPCR); format: cell-based, mouse; settings: B16 melanoma cells, poly(I:C) 250 ng/ml 6 hr (FIG. 12J)
# [3] = FIG. 17E: B16 in C57BL/6, PRMT5i GSK3326595 40 mg/kg from day 10, anti-PD-1 200 μg/mouse days 11, 14, 17, responder = tumor volume <50% of control
# [4] = FIG. 18C: B16F10 in syngeneic mice, PRMT5i GSK3326595 40 mg/kg QD from day 6, anti-PD1 days 8, 11, 14, 17
# [5] = FIG. 17F: YUMM1.7 in C57BL/6, PRMT5i from day 7, anti-PD-1 days 8, 11, 14, 17
# [6] = FIG. 17G: YUMM1.7 in C57BL/6, anti-CD8 200 μg/mouse every three days, PRMT5i from day 8, anti-PD-1 days 9, 12, 15, 18
# T1 sequence (Q8CIG8 whole entry): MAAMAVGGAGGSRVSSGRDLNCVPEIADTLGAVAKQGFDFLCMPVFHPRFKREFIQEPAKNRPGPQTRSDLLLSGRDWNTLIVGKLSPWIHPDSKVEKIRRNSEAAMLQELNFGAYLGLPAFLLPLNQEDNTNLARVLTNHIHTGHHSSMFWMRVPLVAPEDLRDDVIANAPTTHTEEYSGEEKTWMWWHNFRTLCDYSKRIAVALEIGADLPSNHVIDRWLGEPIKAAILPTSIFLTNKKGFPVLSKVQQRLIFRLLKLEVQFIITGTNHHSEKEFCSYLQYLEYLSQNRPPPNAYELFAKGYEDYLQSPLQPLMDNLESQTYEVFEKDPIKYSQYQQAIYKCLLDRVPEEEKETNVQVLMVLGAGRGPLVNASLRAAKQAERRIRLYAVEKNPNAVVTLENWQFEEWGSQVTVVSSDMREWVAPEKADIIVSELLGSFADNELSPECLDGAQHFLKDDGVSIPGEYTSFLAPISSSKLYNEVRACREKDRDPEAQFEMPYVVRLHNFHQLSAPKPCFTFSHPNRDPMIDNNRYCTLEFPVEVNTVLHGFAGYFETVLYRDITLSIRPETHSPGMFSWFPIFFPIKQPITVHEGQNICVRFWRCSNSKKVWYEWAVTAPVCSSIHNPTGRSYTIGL
# T1 sequence (Q99J09 whole entry partner): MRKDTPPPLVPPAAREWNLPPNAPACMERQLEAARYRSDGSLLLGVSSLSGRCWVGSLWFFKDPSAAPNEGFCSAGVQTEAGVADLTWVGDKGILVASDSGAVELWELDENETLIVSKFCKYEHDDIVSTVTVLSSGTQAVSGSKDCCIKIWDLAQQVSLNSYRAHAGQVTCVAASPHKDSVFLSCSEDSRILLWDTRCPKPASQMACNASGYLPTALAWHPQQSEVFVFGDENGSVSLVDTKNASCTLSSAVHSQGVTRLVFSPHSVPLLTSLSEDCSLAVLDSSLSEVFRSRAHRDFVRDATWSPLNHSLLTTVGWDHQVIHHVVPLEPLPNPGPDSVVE
compound,measurement,setting,value
O=C(NC[C@H](O)CN1CCc2ccccc2C1)c1cc(NC2COC2)ncn1 [EPZ015666],IFI204 interaction with SHARPIN,PRMT5 [1]; EPZ015666 10 μM (FIG. 8D),stronger interaction with SHARPIN
same,reduced IFI204 methylation,PRMT5 [1]; EPZ015666 10 μM (FIG. 8F),57%
same,"expression of Ifnb1, Cc15 and Cxcl10","cGAS/STING pathway; B16 cells treated 24 hr, then V70mer dsDNA 500 ng/ml 6 h, qPCR (FIG. 11B)",increased
same,TBK1-IRF3 signaling,"cGAS/STING pathway; B16 melanoma, V70mer 1.5 μg/ml, western blot (FIG. 11G)",activated TBK1-IRF3 signaling
same,decrease in IFI16 methylation,"PRMT5 [2]; A375 melanoma cells, EPZ015666 10 μM (FIG. 8E)",50%
same,degree of interaction between IFI16 and SHARPIN,"PRMT5 [2]; A375 melanoma cells, EPZ015666 10 μM (FIG. 10C)",enhanced
same,decrease in IFI16 methylation,"PRMT5 [2]; WM115 cells (MTAP-deleted), EPZ015666 10 μM (FIG. 10D)",15%
CC(=O)N1CCC(Nc2cc(C(=O)NC[C@H](O)CN3CCc4ccccc4C3)ncn2)CC1 [GSK3326595],immune cell infiltration or activation in tumors,"B16F10 cells; B16F10, PRMT5i monotherapy 40 mg/kg QD from day 8, tumors day 15, flow cytometry (FIGS. 18E-G)",notable changes were not observed
same,response rate across experiments,"B16F10 cells; B16 and YUMM1.7 models, FIGS. 17E-F, 18C-D, table 5",14.3˜66.7%
same,Non-responder,B16F10 cells; [3],6
same,Responder,B16F10 cells; [3],1
same,Response rate (%),"B16F10 cells; FIG. 17E: B16 in C57BL/6, PRMT5i from day 10, anti-PD-1 days 11, 14, 17, percent of responders in group",14.3%
same,Response rate (%),"B16F10 cells; FIG. 18C: B16F10, PRMT5i 40 mg/kg QD from day 6, anti-PD1 days 8, 11, 14, 17",66.7%
same,Non-responder,B16F10 cells; [4],2
same,Responder,B16F10 cells; [4],4
same,Response rate (%),YUMM1.7 cells; [5],28.6%
same,Non-responder,YUMM1.7 cells; [5],5
same,Responder,YUMM1.7 cells; [5],2
same,Non-responder,YUMM1.7 cells; [6],6
same,Responder,YUMM1.7 cells; [6],1
same,Response rate (%),"YUMM1.7 cells; FIG. 17G: YUMM1.7 in C57BL/6, anti-CD8 depletion, PRMT5i from day 8, anti-PD-1 days 9, 12, 15, 18",14.3%
poly(I:C),Ifnb1 and chemokine expression,RIG-I/TLR3,induced
